According to US20080261936A1, “METHODS OF REDUCING THE BODY WEIGHT OF A SUBJECT BY ADMINISTERING A FATTY ACID ESTER OF AN ESTROGEN OR ESTROGEN DERIVATIVE IN AN OIL AND COMPOSITIONS CONTAINING THE SAME” (Manhattan Pharmaceuticals, Inc., priority 2006, published 2008):

Assay: Oil evaluation: solubility behavior of oleoyl-estrone, 200 mg/g in single oils
Assay type: physicochemical
Procedure: An oil evaluation was done to determine the solubility behavior of oleoyl-estrone as a function of type of oil, concentration and temperature. The solubility of oleoyl-estrone was evaluated at concentrations of 60 mg/g and 200 mg/g. […]

[1] = 200 mg/g in Captex 300-6C at 40° C.
[2] = 200 mg/g in Captex 300 EP at 40° C.
[3] = 200 mg/g in Labrafil 1944 CS at 40° C.
[4] = 200 mg/g in Safflower at 40° C.

CCCCCCCC/C=C\CCCCCCCC(=O)Oc1ccc2c(c1)CC[C@@H]1[C@@H]2CC[C@]2(C)C(=O)CC[C@@H]12 [oleoyl-estrone, [3(Z)]-3-[(1-oxo-9-octadecenyl)oxy]-estra-1,3,5(10)-trien-17-one]
Solubility Cycled to 22° C. for 24 hr prior to 5° C. cycle for 96 hr (200 mg/g in Canola): Dissolved
Solubility After 24 hr (200 mg/g in Canola at 40° C.): Dissolved
Solubility After 96 hr (200 mg/g in Canola at 40° C.): Dissolved
Solubility Cycled to 22° C. for 24 hr prior to 5° C. cycle for 96 hr (200 mg/g in Captex 300-6C): Dissolved
Solubility After 24 hr [1]: Dissolved
Solubility After 96 hr [1]: Dissolved
Solubility Cycled to 22° C. for 24 hr prior to 5° C. cycle for 96 hr (200 mg/g in Captex 300 EP): Dissolved
Solubility After 24 hr [2]: Dissolved
Solubility After 96 hr [2]: Dissolved
Solubility Cycled to 22° C. for 24 hr prior to 5° C. cycle for 96 hr (200 mg/g in Corn): Precipitated at 5 °C after 72 hr
Solubility After 24 hr (200 mg/g in Corn at 40° C.): Dissolved
Solubility After 96 hr (200 mg/g in Corn at 40° C.): Dissolved
Solubility Cycled to 22° C. for 24 hr prior to 5° C. cycle for 96 hr (200 mg/g in Labrafac): Precipitated at 5 °C after 4 hr
Solubility After 24 hr (200 mg/g in Labrafac at 40° C.): Dissolved
Solubility After 96 hr (200 mg/g in Labrafac at 40° C.): Dissolved
Solubility Cycled to 22° C. for 24 hr prior to 5° C. cycle for 96 hr (200 mg/g in Labrafil 1944 CS): Precipitated at 5 °C after 4 hr
Solubility After 24 hr [3]: Dissolved
Solubility After 96 hr [3]: Dissolved
Solubility Cycled to 22° C. for 24 hr prior to 5° C. cycle for 96 hr (200 mg/g in Labrafil M 125CS): Precipitated at 5 °C after 24 hr
Solubility After 96 hr (200 mg/g in Labrafil M 125CS at 40° C.): Dissolved
Solubility Cycled to 22° C. for 24 hr prior to 5° C. cycle for 96 hr (200 mg/g in Labrasol): Precipitated at RT not tested
Solubility After 24 hr (200 mg/g in Labrasol at 40° C.): Dissolved
Solubility After 96 hr (200 mg/g in Labrasol at 40° C.): Dissolved
Solubility Cycled to 22° C. for 24 hr prior to 5° C. cycle for 96 hr (200 mg/g in Olive): Precipitated at 5 °C after 4 hr
Solubility After 24 hr (200 mg/g in Olive at 40° C.): Dissolved
Solubility After 96 hr (200 mg/g in Olive at 40° C.): Dissolved
Solubility Cycled to 22° C. for 24 hr prior to 5° C. cycle for 96 hr (200 mg/g in Safflower): Dissolved
Solubility After 24 hr [4]: Dissolved
Solubility After 96 hr [4]: Dissolved
Solubility Cycled to 22° C. for 24 hr prior to 5° C. cycle for 96 hr (200 mg/g in Sesame): Precipitated at 5 °C after 5 hr
Solubility After 24 hr (200 mg/g in Sesame at 40° C.): Dissolved
Solubility After 96 hr (200 mg/g in Sesame at 40° C.): Dissolved
Solubility Cycled to 22° C. for 24 hr prior to 5° C. cycle for 96 hr (200 mg/g in Soybean): Dissolved
Solubility After 24 hr (200 mg/g in Soybean at 40° C.): Dissolved
Solubility After 96 hr (200 mg/g in Soybean at 40° C.): Dissolved
Solubility and thermal stability in single oils (summary) (in safflower oil, soybean oil, canola oil and the medium chain triglycerides): soluble and thermally stable
